Test results taken from paper PMC5824918, “HMG-CoA reductase from Camphor Tulsi (Ocimum kilimandscharicum) regulated MVA dependent biosynthesis of diverse terpenoids in homologous and heterologous plant systems” (Scientific Reports, 2018).

Tested on: T1, OkHMGR
T1 construct: gene HMGR; cDNA from leaf
Assay: spectrophotometric NADPH oxidation at […] nm, Lineweaver-Burk plot
Type: biochemical, Ocimum kilimandscharicum
Details: 7.5 mM DTT, 150 mM potassium phosphate pH 7.0, 30 °C

SMILES	Km (co-substrate NADPH (3.0 mM in standard assay)) [µM]	Km (co-substrate HMG-CoA (0.05 mM in standard assay)) [µM]
CC(C)(COP(=O)(O)OP(=O)(O)OC[C@H]1O[C@@H](n2cnc3c(N)ncnc32)[C@H](O)[C@@H]1OP(=O)(O)O)[C@@H](O)C(=O)NCCC(=O)NCCSC(=O)C[C@@](C)(O)CC(=O)O [HMG-CoA]	88	
NC(=O)C1=CN([C@@H]2O[C@H](COP(=O)(O)OP(=O)(O)OC[C@H]3O[C@@H](n4cnc5c(N)ncnc54)[C@H](OP(=O)(O)O)[C@@H]3O)[C@@H](O)[C@H]2O)C=CC1 [NADPH]		903
